Values of other authors as cited in patent US11980686B1, “Agomelatine oral transmucosal film” (Xiamen LP Pharmaceutical Co., Ltd., priority 2023, dated 2024).

Conditions: oral tablet

Structure (SMILES): COc1ccc2cccc(CCNC(C)=O)c2c1 [agomelatine, Agomelatine]
- Inter-individual variation (AUC): 104%
- Intra-subject variation (AUC): 157%
